Active and inactive are the calls of the source.
Key:
[1] = target: T1, Mannose-6-phosphate isomerase (Homo sapiens, UniProt P34949); test: inhibitors of human PMI, primary screen, biochemical, fluorescence intensity, coupled assay (AID 1209)
T1 sequence (P34949 whole entry): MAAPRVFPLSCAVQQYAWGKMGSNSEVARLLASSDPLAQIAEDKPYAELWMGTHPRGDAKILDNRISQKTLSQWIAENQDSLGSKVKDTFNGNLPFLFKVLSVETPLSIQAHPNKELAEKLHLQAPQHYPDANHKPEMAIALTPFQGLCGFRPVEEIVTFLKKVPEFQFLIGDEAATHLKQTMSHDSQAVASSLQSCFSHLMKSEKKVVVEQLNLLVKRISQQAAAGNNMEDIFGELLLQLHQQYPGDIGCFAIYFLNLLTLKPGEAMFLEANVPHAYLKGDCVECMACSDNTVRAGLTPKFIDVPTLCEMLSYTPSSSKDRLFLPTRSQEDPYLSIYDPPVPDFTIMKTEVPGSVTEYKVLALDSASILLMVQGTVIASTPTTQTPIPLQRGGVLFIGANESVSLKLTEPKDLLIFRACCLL

[2] = inhibitors of intracellular T. cruzi replication, confirmation, NIH3T3 host cells, beta-gal luminescence (AID 2044); assay type: functional, cell-based;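 further: intracellular parasites grown in NIH/3T3 mouse fibroblasts as host cells; luminescent beta-galactosidase reporter signal from transgenic T. cruzi replicating inside host cells; inhibitors lower the luminescence signal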
[3] = cytotoxicity in KRAS-transformed pancreatic duct cells, primary screen, cell-based, fluorescence, HTS (AID 431); assay type: functional; conditions: Homo sapiens;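 further: cell line used: HPDE-C7K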
[4] = growth suppression of PTEN-null colon cells, dose response, cell-based, HCT116 PTEN knockout (AID 1047); assay type: functional;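 further: HCT116 colon tumor cells with PTEN knocked out; cells exposed to compound for 60 hours before readout; potency for loss of cell viability measured by luminescence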
[5] = target: T2, Sentrin-specific protease 8 (Homo sapiens, UniProt Q96LD8); assay type: functional;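 further: luminescence read-out of SENP8 inhibition, dose-response confirmation following an ultra-high-throughput screen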
T2 sequence (Q96LD8 whole entry): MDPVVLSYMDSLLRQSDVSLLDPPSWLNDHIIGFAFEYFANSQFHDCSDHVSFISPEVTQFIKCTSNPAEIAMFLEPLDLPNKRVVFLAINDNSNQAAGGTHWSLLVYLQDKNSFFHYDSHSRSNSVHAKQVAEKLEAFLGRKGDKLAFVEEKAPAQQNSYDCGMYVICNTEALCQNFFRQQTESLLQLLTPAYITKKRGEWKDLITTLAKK

Vero = Vero cell cytotoxicity, cytotoxicity control for flavivirus capping enzyme inhibitors (AID 588742); assay type: functional; conditions: Chlorocebus sabaeus
[6] = target: T3, Apoptotic protease-activating factor 1 (Homo sapiens, UniProt O14727); assay type: functional
T3 sequence (O14727 whole entry): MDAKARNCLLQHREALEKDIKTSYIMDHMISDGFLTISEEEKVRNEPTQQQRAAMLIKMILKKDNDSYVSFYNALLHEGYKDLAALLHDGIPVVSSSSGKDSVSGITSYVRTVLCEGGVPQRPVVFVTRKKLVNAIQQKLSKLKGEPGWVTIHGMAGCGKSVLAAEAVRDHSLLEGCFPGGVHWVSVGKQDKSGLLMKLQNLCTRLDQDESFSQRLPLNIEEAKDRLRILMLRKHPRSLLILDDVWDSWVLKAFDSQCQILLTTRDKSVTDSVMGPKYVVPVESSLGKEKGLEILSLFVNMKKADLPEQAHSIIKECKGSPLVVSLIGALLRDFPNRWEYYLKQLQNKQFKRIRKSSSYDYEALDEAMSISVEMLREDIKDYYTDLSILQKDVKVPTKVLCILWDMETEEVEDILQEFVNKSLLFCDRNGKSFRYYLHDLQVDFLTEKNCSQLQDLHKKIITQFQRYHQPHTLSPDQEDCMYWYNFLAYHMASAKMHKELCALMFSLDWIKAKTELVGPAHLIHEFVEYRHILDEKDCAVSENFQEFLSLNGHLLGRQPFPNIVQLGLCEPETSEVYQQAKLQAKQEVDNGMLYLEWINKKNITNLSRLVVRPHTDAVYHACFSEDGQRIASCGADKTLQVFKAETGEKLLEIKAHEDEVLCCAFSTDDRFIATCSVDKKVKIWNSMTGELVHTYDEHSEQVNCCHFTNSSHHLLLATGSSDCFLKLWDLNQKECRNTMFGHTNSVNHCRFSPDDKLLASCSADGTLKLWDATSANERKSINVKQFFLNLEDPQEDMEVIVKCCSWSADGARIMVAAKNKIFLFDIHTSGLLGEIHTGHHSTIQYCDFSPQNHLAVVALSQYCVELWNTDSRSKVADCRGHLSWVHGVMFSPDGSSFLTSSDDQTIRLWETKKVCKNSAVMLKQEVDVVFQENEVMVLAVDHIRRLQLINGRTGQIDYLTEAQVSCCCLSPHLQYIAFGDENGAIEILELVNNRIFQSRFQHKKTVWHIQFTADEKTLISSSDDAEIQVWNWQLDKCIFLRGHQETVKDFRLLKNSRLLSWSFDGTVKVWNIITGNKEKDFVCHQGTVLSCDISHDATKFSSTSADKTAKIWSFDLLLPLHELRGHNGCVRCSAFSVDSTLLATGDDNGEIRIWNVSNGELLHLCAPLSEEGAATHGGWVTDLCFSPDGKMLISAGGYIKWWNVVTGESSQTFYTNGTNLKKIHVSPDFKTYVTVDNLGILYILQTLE

[7] = target: T4, Tyrosine-protein phosphatase non-receptor type 7 (Homo sapiens, UniProt P35236); assay type: functional
T4 sequence (P35236 whole entry): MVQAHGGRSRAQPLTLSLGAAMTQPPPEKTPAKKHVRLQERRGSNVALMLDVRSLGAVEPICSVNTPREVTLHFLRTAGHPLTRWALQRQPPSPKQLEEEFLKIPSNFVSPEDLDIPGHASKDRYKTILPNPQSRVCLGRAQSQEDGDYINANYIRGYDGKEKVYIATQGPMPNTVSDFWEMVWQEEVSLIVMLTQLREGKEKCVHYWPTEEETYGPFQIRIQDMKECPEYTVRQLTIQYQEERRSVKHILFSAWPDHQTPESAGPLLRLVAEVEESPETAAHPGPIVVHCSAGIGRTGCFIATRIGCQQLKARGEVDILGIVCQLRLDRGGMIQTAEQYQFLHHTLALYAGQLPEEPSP

Q: For `COc1ccc(Nc2ccc3c(c2)=NC2(CCCCC2)[N+]=3[O-])cc1`, which IC50 [1] is on record?
A: > 50 µM (not active)

Q: And the EC50 [2]?
A: 3.4 µM (active)

Q: What about the EC50 [3] of the same molecule?
A: 8.16 µM (active)

Q: What about the EC50 [4] of the same molecule?
A: 2.49 µM (active)

Q: What about the IC50 [5] of the same molecule?
A: 14.8 µM (active)

Q: And the CC50 (Vero)?
A: 10.8 µM (active)

Q: What about the IC50 [6] of the same molecule?
A: 12.2 µM (active)

Q: With `COc1ccc(/C=C2\SC(=S)N(CCC(=O)Nc3ccc(C(=O)O)cc3)C2=O)cc1OC` as the molecule, how does the IC50 [7] read?
A: 3.78 µM (active)

From ChEMBL document CHEMBL1201862, “PubChem BioAssay data set” (2004)
